In US9763445B2, “Safened herbicidal compositions comprising a pyridine carboxylic acid herbicide” (Dow AgroSciences, LLC, priority 2014, dated 2017):

Tests used:
kochia (KCHSC) = experiment: Postemergence greenhouse trial, % visual injury on kochia; format: in vivo, Kochia scoparia; settings: KCHSC; for % visual injury, Ob: CQC-m 0 g/ha
Description: (§1) Seeds of the desired test plant species were planted in Sun Gro MetroMix® 306 planting mixture, which typically has a pH of 6.0 to 6.8 and an organic matter content of about 30 percent, in plastic pots with a surface area of 103.2 square centimeters (cm^2). When required to ensure good germination and healthy plants, a fungicide treatment and/or other chemical or physical treatment was applied. The plants were grown for 7-36 days (d) in a greenhouse with an approximate 14-hour (h) photoperiod which was maintained at about 23° C. during the day and 22° C. during the night. Nutrients and water were added on a regular basis and supplemental lighting was provided with overhead metal halide 1000-Watt lamps as necessary. The plants were employed for testing when they reached the second or third true leaf stage.
(§2) Weighed amounts of technical material were dissolved in a volume of 97:3 volume per volume (v/v) acetone/dimethyl sulfoxide (DMSO) to stock solutions. […] The concentrated stock solutions were diluted with an aqueous mixture of 1.5% v/v of Agri-dex crop oil concentrate to provide the appropriate application rates. Compound requirements are based upon a 12 milliliter (mL) application volume at a rate of 187 liters per hectare (L/ha). Stocks solutions of the safeners were prepared following the same procedure. Spray solutions of the safeners and experimental compound mixtures were prepared by adding the stock solutions to the appropriate amount of dilution solution to form a 12 mL spray solution in two-way combinations. Formulated compounds were applied to the plant material with an overhead Mandel track sprayer equipped with 8002E nozzles calibrated to deliver 187 L/ha over an application area of 0.503 square meters (m^2) at a spray height of 18 inches (43 centimeters (cm)) above average plant canopy. Control plants were sprayed in the same manner with the solvent blank. All herbicide application (component a) rates are in g ae/ha and all safener (component b) rates are in g ai/ha.
(§3) The treated plants and control plants were placed in a greenhouse as described above and watered by sub-irrigation to prevent wash-off of the test compounds. After 20-22 d, the condition of the test plants as compared with that of the control plants was determined visually and scored on a scale of 0 to 100 percent where 0 corresponds to no injury and 100 corresponds to complete kill. […] Colby's equation was used to determine the herbicidal effects expected from the mixtures. […]

wild mustard (SINAR) = experiment: Postemergence greenhouse trial, % visual injury on wild mustard; format: in vivo, Sinapis arvensis; settings: SINAR; for % visual injury, Ob: CQC-m 0 g/ha
Description: as §1, §2, §3

winter rape (BRSNW) = experiment: Postemergence greenhouse trial, % visual injury on winter rape; format: in vivo, Brassica napus; settings: BRSNW, CQC-m 0 g/ha
Procedure, shortened: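 Plants at second or third true leaf stage, greenhouse-grown (14 h photoperiod, ~23/22° C.), sprayed postemergence with compounds alone or with safener cloquintocet-mexyl in 1.5% v/v Agri-dex crop oil at 187 L/ha. Visual injury scored 0–100% versus solvent-blank controls after 20-22 d; expected mixture effects by Colby's equation.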

spring wheat (TRZAS) = experiment: Postemergence greenhouse trial, % visual injury on spring wheat; format: in vivo, Triticum aestivum; settings: TRZAS
Procedure, shortened: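 Postemergence greenhouse spray (187 L/ha, 1.5% v/v Agri-dex in water, acetone/DMSO stocks) on plants at second–third true leaf stage, ~23/22 °C, 14 h photoperiod; herbicides in g ae/ha, safener cloquintocet-mexyl in g ai/ha. Visual injury 0–100% versus solvent-blank controls after 20–22 d; Colby's equation gave expected mixture effects.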

[1] = compound 4.375 g/ha, CQC-m 0 g/ha
[2] = compound 8.75 g/ha, CQC-m 0 g/ha
[3] = compound 17.5 g/ha, CQC-m 0 g/ha

Row | SMILES | % visual injury, Ob (kochia (KCHSC); compound 4.375 g/ha) | % visual injury, Ob (kochia (KCHSC); compound 8.75 g/ha) | % visual injury, Ob (kochia (KCHSC); compound 17.5 g/ha) | % visual injury, Ob (kochia (KCHSC); compound 35 g/ha) | % visual injury, Ob (kochia (KCHSC); compound 70 g/ha) | % visual injury, Ob (wild mustard (SINAR); compound 4.375 g/ha) | % visual injury, Ob (wild mustard (SINAR); compound 8.75 g/ha) | % visual injury, Ob (wild mustard (SINAR); compound 17.5 g/ha) | % visual injury, Ob (wild mustard (SINAR); compound 35 g/ha) | % visual injury, Ob (wild mustard (SINAR); compound 70 g/ha) | % visual injury, Ob (winter rape (BRSNW); compound 4.375 g/ha) | % visual injury, Ob (winter rape (BRSNW); compound 8.75 g/ha) | % visual injury, Ob (winter rape (BRSNW); compound 17.5 g/ha) | % visual injury, Ob (winter rape (BRSNW); compound 35 g/ha) | % visual injury, Ob (winter rape (BRSNW); compound 70 g/ha) | % visual injury, Ob (spring wheat (TRZAS); [1]) | % visual injury, Ob (spring wheat (TRZAS); [2]) | % visual injury, Ob (spring wheat (TRZAS); [3]) | % visual injury, Ob (spring wheat (TRZAS); compound 35 g/ha, CQC-m 0 g/ha) | % visual injury, Ob (spring wheat (TRZAS); compound 70 g/ha, CQC-m 0 g/ha) | further results
1 | COc1c(C(=O)O)nc(-c2ccc3cc[nH]c3c2F)c(F)c1N [compound 13] | 55% | 84% | 89% | 92% | 93% | 95% | 100% | 100% | 100% | 100% | 100% | 100% | 100% | 100% | 100% | 40% | 53% | 67% | 80% | 87% | 
2 | Nc1cc(-c2ccc3cc[nH]c3c2F)nc(C(=O)O)c1Cl [compound 15] | 10% | 10% | 50% | 60% | 75% | 93% | 100% | 100% | 100% | 100% | 40% | 40% | 50% | 70% | 60% | 0% | 10% | 15% | 20% | 25% | 
3 | Nc1c(F)c(-c2ccc3ccoc3c2)nc(C(=O)O)c1Cl [compound 20] |  |  |  |  |  |  |  |  |  |  |  |  |  |  |  |  |  |  |  |  | pest or weed control at 4.375 g/ha (kochia (KCHSC); Bassia scoparia, post-emergence, 4.375 g/ha, applied alone, read-out: % visual injury, Ob): 70%; pest or weed control at 8.75 g/ha (kochia (KCHSC); Bassia scoparia, post-emergence, 8.75 g/ha, applied alone, read-out: % visual injury, Ob): 80%; pest or weed control at 17.5 g/ha (kochia (KCHSC); Bassia scoparia, post-emergence, 17.5 g/ha, applied alone, read-out: % visual injury, Ob): 85%; pest or weed control at 35 g/ha (kochia (KCHSC); Bassia scoparia, post-emergence, 35 g/ha, applied alone, read-out: % visual injury, Ob): 90%; pest or weed control at 70 g/ha (kochia (KCHSC); Bassia scoparia, post-emergence, 70 g/ha, applied alone, read-out: % visual injury, Ob): 95%; pest or weed control at 4.375 g/ha (wild mustard (SINAR); Brassica, post-emergence, 4.375 g/ha, applied alone, read-out: % visual injury, Ob): 60%; pest or weed control at 8.75 g/ha (wild mustard (SINAR); Brassica, post-emergence, 8.75 g/ha, applied alone, read-out: % visual injury, Ob): 60%; pest or weed control at 17.5 g/ha (wild mustard (SINAR); Brassica, post-emergence, 17.5 g/ha, applied alone, read-out: % visual injury, Ob): 83%; pest or weed control at 35 g/ha (wild mustard (SINAR); Brassica, post-emergence, 35 g/ha, applied alone, read-out: % visual injury, Ob): 80%; pest or weed control at 70 g/ha (wild mustard (SINAR); Brassica, post-emergence, 70 g/ha, applied alone, read-out: % visual injury, Ob): 93%; % visual injury, Ob (spring wheat (TRZAS); 4.375 g/ha, applied alone): 0%; % visual injury, Ob (spring wheat (TRZAS); 8.75 g/ha, applied alone): 0%; % visual injury, Ob (spring wheat (TRZAS); 17.5 g/ha, applied alone): 0%; % visual injury, Ob (spring wheat (TRZAS); 35 g/ha, applied alone): 10%; % visual injury, Ob (spring wheat (TRZAS); 70 g/ha, applied alone): 20%
